Test results taken from US9271503B2, “Control of insect pests” (priority 2011, dated 2016).

System: B. tabaci b-biotype adults and nymphs
Assay: Field trial on silverleaf whitefly against conventional insecticide (Example 21)
Format: in vivo, Bemisia tabaci
Settings: formulations 2.0 L/ha, Diafenthiuron 0.80 L/ha
Experimental: The trial was conducted in an irrigated conventional cotton crops in a cotton farm. […] Each replicated plot measured 24 m wide 100 m long.
Foliar applications of each treatment were made over two weeks. Pre-treatment counts were made visually of B. tabaci adults and nymphs, on the under-surface of leaves of cotton plants in each treatment. […] Data of both adults and nymphs were expressed as numbers per leaf for each treatment.
Treatment and sample dates were the independent variables.

`CC(C)c1cc(Oc2ccccc2)cc(C(C)C)c1NC(=S)NC(C)(C)C` [Diafenthiuron] was tested, and the “Bemisia tabaci adults per leaf, 3 DAT” value was 15.33 ± 1.45 a per leaf, the “Bemisia tabaci adults per leaf, 7 DAT” value was 20.33 ± 2.40 ab per leaf and the “Bemisia tabaci adults per leaf, 14 DAT” value was 12.00 ± 0.88 a per leaf. For the same compound, the “Bemisia tabaci nymphs per leaf, 3 DAT” value was 28.67 ± 7.22 b per leaf, the “Bemisia tabaci nymphs per leaf, 7 DAT” value was 15.33 ± 2.40 a per leaf and the “Bemisia tabaci nymphs per leaf, 14 DAT” value was 17.00 ± 1.73 b per leaf. For the same compound, the “Bemisia tabaci adults, 3 DAT (% mortality)” value (relative to the control) was “(54.7%)”, the “Bemisia tabaci adults, 7 DAT (% mortality)” value (relative to the control) was “(32.2%)” and the “Bemisia tabaci adults, 14 DAT (% mortality)” value (relative to the control) was “(34.5%)”. For the same compound, the “Bemisia tabaci nymphs, 7 DAT (% mortality)” value (relative to the control) was “(22.1%)”, the “Bemisia tabaci nymphs, 14 DAT (% mortality)” value (relative to the control) was “(60.6%)” and the “Bemisia tabaci adults, 3 DAT (% mortality)” value (relative to the control, listed as conventional insecticide) was 38.7%.
